In the oligonucleotide strings, read from the 5' end, every base follows the letter of its sugar. An asterisk marks phosphorothioate; unmarked linkages are phosphodiester. Other units and linkages are bracketed, terminal groups are in braces. A string of capitals states the bases alone. e = 2'-O-(2-methoxyethyl) (MOE); [5mC] = 5-methylcytosine; d = 2'-deoxy (DNA)
Legend:
Format in all cases: cell-based, human
adipocytes = assay: Triglyceride accumulation assay in adipocytes
aP2 = aP2 mRNA expression in adipocytes (real-time PCR); details: for aP2 mRNA: Table 75
Glut4 = Glut4 mRNA expression in adipocytes (real-time PCR)
HSL = HSL mRNA expression in adipocytes (real-time PCR)
PPARγ = PPARγ mRNA expression in adipocytes (real-time PCR)
[1] = differentiating adipocytes transfected with oligomeric compound
[2] = Table 18, differentiating adipocytes, control = treatment with ISIS 342673
[3] = differentiating adipocytes transfected with oligomeric compound, Table 75
[4] = Table 17, differentiating adipocytes, control = treatment with ISIS 342673

Row | Substance | TG (triglyceride accumulation) (adipocytes; [1]) | AP2 mRNA (aP2; [1]) | GLUT4 mRNA (Glut4; [1]) | HSL mRNA (HSL; [1]) | PPAR gamma mRNA (PPARγ; [1]) | TG (triglyceride accumulation) (adipocytes; [2]) | AP2 mRNA (aP2; [2]) | aP2 mRNA (aP2; [1]) | GLUT4 mRNA (Glut4; [2]) | GLUT4 mRNA (Glut4; [3]) | HSL mRNA (HSL; [2]) | HSL mRNA (HSL; [3]) | PPAR gamma mRNA (PPARγ; [2]) | PPAR gamma mRNA (PPARγ; [3]) | TG (triglyceride accumulation) (adipocytes; [3]) | TG (triglyceride accumulation) (adipocytes; [4]) | AP2 mRNA (aP2; [4]) | GLUT4 mRNA (Glut4; [4]) | HSL mRNA (HSL; [4]) | PPAR gamma mRNA (PPARγ; [4])
1 | 328691 (e[5mC]*e[5mC]*e[5mC]*e[5mC]*eA*dT*d[5mC]*dT*dT*dA*dG*d[5mC]*dA*dT*d[5mC]*eT*eA*eA*eG*eG) [compound 328691] | 130 percentage of untreated control (UTC) | 166 percentage of untreated control (UTC) | 144 percentage of untreated control (UTC) | 156 percentage of untreated control (UTC) | 105 percentage of untreated control (UTC) | – | – | – | – | – | – | – | – | – | – | – | – | – | – | –
2 | 341805 (antisense ACCCTTATCAGTTCTCCGTCCA; all 2'-MOE, all phosphorothioate, methylation of C not given here) [compound 341805] | – | – | – | – | – | 78.1 percentage of control | 81.9 percentage of control | 90 percentage of untreated control (UTC) | 88.2 percentage of control | 74 percentage of untreated control (UTC) | 81.8 percentage of control | 86 percentage of untreated control (UTC) | 80.4 percentage of control | 77 percentage of untreated control (UTC) | – | – | – | – | – | –
3 | 340350 (antisense TGCTCAATAAATACCCGTTGAA; all 2'-MOE, all phosphorothioate, methylation of C not given here) [compound 340350] | – | – | – | – | – | – | – | 64 percentage of untreated control (UTC) | – | 53 percentage of untreated control (UTC) | – | 45 percentage of untreated control (UTC) | – | 59 percentage of untreated control (UTC) | 38 percentage of untreated control (UTC) | – | – | – | – | –
4 | 328114 (antisense eA*eA*eT*e[5mC]*eT*e[5mC]*eA*eT*eT*eT*eT*e[5mC]*eA*eT*eA*e[5mC]*eT*eT*eG*e[5mC]*eA) [compound 328114] | 110 percentage of untreated control (UTC) | 123 percentage of untreated control (UTC) | 116 percentage of untreated control (UTC) | 134 percentage of untreated control (UTC) | 106 percentage of untreated control (UTC) | 117.3 percentage of control | 94.4 percentage of control | – | 114.9 percentage of control | – | 93.3 percentage of control | – | 89.3 percentage of control | – | – | – | – | – | – | –
5 | 328125 (antisense eT*eA*eT*eG*eA*eA*eA*eT*eG*e[5mC]*e[5mC]*eA*eG*eA*eG*e[5mC]*eT*eG*e[5mC]*e[5mC]*eA) [compound 328125] | – | – | – | – | – | – | – | 75 percentage of untreated control (UTC) | – | 65 percentage of untreated control (UTC) | – | 48 percentage of untreated control (UTC) | – | 68 percentage of untreated control (UTC) | 44 percentage of untreated control (UTC) | 81.7 percentage of control | 86.9 percentage of control | 99.5 percentage of control | 75.8 percentage of control | 76.1 percentage of control
6 | 328685 (e[5mC]*eG*eG*e[5mC]*e[5mC]*dG*dG*dA*dG*d[5mC]*d[5mC]*dA*dT*dA*dG*eA*e[5mC]*eT*e[5mC]*eG; antisense) [compound 328685] | 50 percentage of untreated control (UTC) | 73 percentage of untreated control (UTC) | 69 percentage of untreated control (UTC) | 100 percentage of untreated control (UTC) | 91 percentage of untreated control (UTC) | – | – | – | – | – | – | – | – | – | – | – | – | – | – | –
7 | 328117 (antisense eT*e[5mC]*e[5mC]*eA*e[5mC]*eA*eA*eA*eG*e[5mC]*eT*eG*eA*eA*e[5mC]*eA*eT*eG*eT*e[5mC]*eT) [compound 328117] | – | – | – | – | – | – | – | 28 percentage of untreated control (UTC) | – | 13 percentage of untreated control (UTC) | – | 18 percentage of untreated control (UTC) | – | 42 percentage of untreated control (UTC) | 16 percentage of untreated control (UTC) | 55.0 percentage of control | 65.4 percentage of control | 68.1 percentage of control | 61.7 percentage of control | 64.1 percentage of control
8 | 328759 (antisense eG*eA*eG*eG*eG*dA*dT*dT*dG*dT*dA*dT*dG*dA*dA*e[5mC]*eA*eT*e[5mC]*eT) [compound 328759] | 87 percentage of untreated control (UTC) | 108 percentage of untreated control (UTC) | 66 percentage of untreated control (UTC) | 105 percentage of untreated control (UTC) | 95 percentage of untreated control (UTC) | – | – | – | – | – | – | – | – | – | – | – | – | – | – | –
9 | 328133 (eT*eG*eA*eA*eG*eG*eT*eT*e[5mC]*eG*eG*eA*eG*eA*eT*eA*eG*eG*e[5mC]*eT*eA; anti-miR) [compound 328133] | – | – | – | – | – | – | – | 66 percentage of untreated control (UTC) | – | 59 percentage of untreated control (UTC) | – | 49 percentage of untreated control (UTC) | – | 53 percentage of untreated control (UTC) | 43 percentage of untreated control (UTC) | 61.2 percentage of control | 69.5 percentage of control | 91.9 percentage of control | 63.0 percentage of control | 63.8 percentage of control
10 | 328110 (antisense eG*eA*eT*eA*eA*eA*eG*e[5mC]*e[5mC]*eA*eA*eT*eA*eA*eA*e[5mC]*eT*eG*eT*e[5mC]*eA) [compound 328110] | – | – | – | – | – | 97.7 percentage of control | 93.3 percentage of control | 89 percentage of untreated control (UTC) | 104.7 percentage of control | 77 percentage of untreated control (UTC) | 91.0 percentage of control | 84 percentage of untreated control (UTC) | 91.2 percentage of control | 80 percentage of untreated control (UTC) | 96 percentage of untreated control (UTC) | – | – | – | – | –
11 | 328119 (antisense eA*eA*eT*eA*eA*e[5mC]*eA*e[5mC]*eA*e[5mC]*eA*eT*e[5mC]*e[5mC]*eA*e[5mC]*eT*eT*eT*eA*eA) [compound 328119] | – | – | – | – | – | – | – | 119 percentage of untreated control (UTC) | – | 104 percentage of untreated control (UTC) | – | 101 percentage of untreated control (UTC) | – | 102 percentage of untreated control (UTC) | 109 percentage of untreated control (UTC) | 90.2 percentage of control | 99.9 percentage of control | 95.2 percentage of control | 98.5 percentage of control | 82.7 percentage of control

Reference: patent publication US8178506B2, “Oligomeric compounds and compositions for use in modulation of small non-coding RNAs” (Regulus Therapeutics Inc., priority 2003, dated 2012)
